Assay results: patent US10413583B2, “Synthetic substrates for enzymes that catalyze reactions of modified cysteines and related methods” (The University of Chicago, priority 2016, dated 2019)

Key:
[1] = target: T1, APT1 (Homo sapiens, UniProt O75608); test: In vitro kinetic assays and emission spectra of DPP-1, DPP-4, DPP-5 with APT1 (no detergent); format: biochemical
T1 construct: His-tag; made in house; host or cells: E. coli ROSETTA DE3
Description: 150 μL of 2 μM DPP-1, DPP4 or DPP-5 in HEPES (20 mM, pH=7.4, 150 mM NaCl) were added to a 96-well optical bottom plate (Nunc 265301, Fisher Scientific, Pittsburgh, Pa., United States of America) at room temperature. 150 μL of either HEPES buffer alone or HEPES buffer containing 100 nM APT1 or APT2 (purification using previous methods), was added using a multi-channel pipette, resulting in a final concentration of 1 μM DPP-1/DPP4/DPP-5 and 50 nM APT1 or APT2. Fluorescence intensities (λex 490/20 nm, λem 545/20 nm, Gain 80, read from bottom with height 4.5 mm, and sweep method) were measured at 15 s time intervals for 30 min at 37° C. Following the 30 min kinetic run, emission spectra were obtained (λex 480/20 nm, Aem515-700 nm, Gain 80, read from bottom with height 4.5 mm, and sweep method).

[2] = target: T1, APT1; test: Enzyme kinetics analysis of DPP-5 with APT1; format: biochemical; details: APT1 50 nM
Description: (§1) 150 μL of 1 M DTT in HEPES buffer was added to different concentrations of 150 μL DPP-5 and then the stable fluorescence intensities of totally deacylated product were measured by the methods described above. Fluorescence intensity of per molar deacylated-product was then calculated by linear least-squares fitting of plots of fluorescence vs. concentration. For Michaelis-Menten constant, in vitro kinetics curves were obtained for different final concentrations of DPP-5 in HEPES with 50 nM APT1 or APT2. The fluorescence intensities measured were then normalized to the concentrations of product by fluorescence-intensity-permolar-product. A Lineweaver-Burk plot was used to calculate the Michaelis constant, KM, and the maximum velocity, Vmax, which is proportional to kcat by concentration of APT1 or APT2. All fits have R^2 values of >0.99.

[3] = target: T2, APT2 (Homo sapiens, UniProt O95372); test: Enzyme kinetics analysis of DPP-5 with APT2; format: biochemical; details: APT2 50 nM
T2 construct: His-tag; made in house; host or cells: E. coli ROSETTA DE3
T2 sequence (O95372 whole entry): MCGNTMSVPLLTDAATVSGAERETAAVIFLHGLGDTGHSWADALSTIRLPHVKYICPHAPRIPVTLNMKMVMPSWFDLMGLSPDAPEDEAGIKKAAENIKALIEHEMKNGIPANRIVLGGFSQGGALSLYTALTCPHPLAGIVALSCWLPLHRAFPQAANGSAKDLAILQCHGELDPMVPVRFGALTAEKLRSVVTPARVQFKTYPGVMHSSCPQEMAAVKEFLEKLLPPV
Description: as §1

[4] = test system: HEPG2 cells; test: Fluorescence imaging of RDP-1 with HEPG2 cells (PalmB, palmitate); format: cell-based, human; details: 40 μM PalmB 30 min, 1 μM RDP-1
Description: HEPG2 were plated with […] of DMEM (Gibco, Gaithersburg, Md., United States of America; High Glucose, Glutamax, 10% FBS) a four well chambered imaging dish (D35C4-20-1.5-N, Cellvis, Mountain View, Calif., United States of America) which were precoated with 4 μg Poly-D-lysine (30-70 KDa, Alfa Aesar, Haverhill, Mass., United States of America) for 2 h at room temperature or overnight at 4° C. and grown to ca. 80% confluence prior to imaging. 30 min before the addition of the RDP, the cell culture media was removed and cells were washed with 500 μL of serum-free DMEM (Gibco, Gaithersburg, Md., United States of America; High Glucose, Glutamax, no FBS). The media was then replaced with 500 μL of serum-free DMEM containing 100 nM Mitotracker Deep Red (Thermo Fisher Scientific, Waltham, Mass., United States of America) to assist in focusing and processing) and either 0.1% DMSO carrier as a control or Palm B in DMSO and incubated for 30 min at 37° C. and 5% CO2. The media was removed, the cells were washed with 500 μL of Live Cell Imaging Solution (Thermo Fisher Scientific, Waltham, Mass., United States of America), and 500 μL of 1 μM RDP-1 along with the Palm B or DMSO as control in Live Cell Imaging Solution was added to each well. […]

T1 sequence (O75608 whole entry): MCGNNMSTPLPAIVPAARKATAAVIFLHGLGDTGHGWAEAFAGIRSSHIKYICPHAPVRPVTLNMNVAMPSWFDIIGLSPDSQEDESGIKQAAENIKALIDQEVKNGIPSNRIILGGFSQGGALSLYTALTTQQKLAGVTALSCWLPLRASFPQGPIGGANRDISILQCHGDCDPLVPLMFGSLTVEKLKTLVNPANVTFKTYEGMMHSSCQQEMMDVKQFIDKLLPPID

Row | Structure (SMILES) | enhancement in intensity of fluorescence signal ([1]; 1 μM probe, 50 nM APT1, 30 minutes, absence of detergents) | in vitro kinetics ([1]; APT1, absence of detergents) | Kcat [2] | Km ([2]; Lineweaver-Burk) | Kcat [3] | Km ([3]; Lineweaver-Burk) | decrease in deacylation of RDP-1 [4]
1 | CCCCCCCCCCCCCCCC(=O)SC[C@@H](C(=O)NC)N(C)C(=O)Oc1ccc2c(c1)Oc1cc(N3CCN(C(=O)CCC(=O)O)CC3)ccc1C21OC(=O)c2ccccc21 (stereo partly shown) [DPP-5] | 350 fold | more rapid turn-on response | 0.044 s⁻¹ | 1.6 µM | 0.066 s⁻¹ | 2.1 µM | –
2 | CCCCCCCCCC[C@@H]1C(=O)O[C@H]1CCc1ccc(OC)c(OC)c1 [PalmB, palmostatin B] | – | – | – | – | – | – | about 60%
